The source made the active and inactive calls. The rule behind the calls is not given here.
Experiments:
[1] = Cytotoxicity against African green monkey Vero cells incubated for 3 days by fluorescence based assay; format: toxicity, cell-based; conditions: chlorocebus sabaeus, time 3 day
[2] = Toxicity in Swiss mouse infected with chloroquine-resistant Plasmodium yoelii N67 assessed as mean survival time at 100 mg/kg/day, po for 4 days (reference value: 7.2 +/- 1.3 day); format: organism-based; conditions: in vivo, 96 h, time 4 day
[3] = tested on: Plasmodium yoelii; assay: Antimalarial activity against chloroquine-resistant Plasmodium yoelii N67 infected in Swiss mouse assessed as parasite growth suppression at 100 mg/kg/day, po for 4 days measured on day 4 relative to control; format: functional; conditions: time 4 day
[4] = tested on: Plasmodium yoelii; assay: Antimalarial activity against chloroquine-resistant Plasmodium yoelii N67 infected in Swiss mouse assessed as parasite growth suppression at 100 mg/kg/day, po for 4 days measured on day 7 relative to control; format: functional; conditions: time 7 day
[5] = tested on: THP-1; assay: Cytotoxicity against LPS-stimulated human THP-1 cells assessed as cell viability at 10 uM incubated for 12 hrs followed by LPS treatment measured after 4 hrs by PI staining based flow cytometry; format: functional; conditions: time 16.0 hrs
[6] = tested on: HEK-293T; assay: Antiinflammatory activity against HEK293T cells assessed as fold increase in TNFalpha-induced NF-kappaB activity at 10 uM incubated for 1 hr followed by TNFalpha treatment for 5 hrs by luciferase based assay (reference value: 17.1); format: functional, Homo sapiens
[7] = tested on: THP-1; assay: Antiinflammatory activity against human THP-1 cells assessed as inhibition of LPS-induced TNFalpha level at 10 uM incubated for 12 to 14 hrs followed by compound replenishment for 1 hr and subsequent LPS treatment for 4 hrs by ELISA assay (reference value: 93.43 %); format: functional; set-up: scale not given: the % may be the effect or the level left; conditions: time 17-19 hrs
[8] = tested on: Plasmodium falciparum; assay: Antimalarial activity against asynchronous chloroquine-resistant Plasmodium falciparum K1 assessed as parasite growth inhibition infected in erythrocytes incubated for 72 hrs by SYBR green dye based assay; format: functional, organism-based; conditions: K1, 72 h
[9] = tested on: Plasmodium falciparum; assay: Antimalarial activity against asynchronous chloroquine-sensitive Plasmodium falciparum 3D7 assessed as parasite growth inhibition infected in erythrocytes incubated for 72 hrs by SYBR green dye based assay; format: functional, organism-based; conditions: 3D7, 72 h
[10] = tested on: Mus musculus; assay: Antiinflammatory activity in Swiss albino mouse assessed as inhibition of carrageenan-induced paw edema at 200 mg/kg,po pretreated for 1 hr followed by carrageenan administration measured after 6 hrs relative to control; format: functional; conditions: time 7 hrs
[11] = tested on: Mus musculus; assay: Antiinflammatory activity in Swiss albino mouse assessed as inhibition of carrageenan-induced paw edema at 200 mg/kg,po pretreated for 1 hr followed by carrageenan administration measured after 4 hrs relative to control; format: functional; conditions: time 5 hrs
[12] = Tmax in fasted Swiss mouse at 50 mg/kg, po measured upto 48 hrs by LC-MS/MS analysis; format: ADME, organism-based; conditions: in vivo
[13] = tested on: Mus musculus; assay: Antiinflammatory activity in Swiss albino mouse assessed as inhibition of carrageenan-induced paw edema at 100 mg/kg,po pretreated for 1 hr followed by carrageenan administration measured after 6 hrs relative to control; format: functional; conditions: time 7 hrs
[14] = Clearance in fasted Swiss mouse at 50 mg/kg, po measured upto 48 hrs by LC-MS/MS analysis; format: ADME, organism-based; conditions: in vivo
[15] = AUC in fasted Swiss mouse at 50 mg/kg, po measured upto 48 hrs by LC-MS/MS analysis; format: ADME, organism-based; set-up: time < 48 hrs, dose 50 mg/kg, route po; conditions: in vivo
[16] = Stability in mouse plasma assessed as compound remaining at 10 uM measured upto 120 mins by LC-MS analysis; format: ADME, cell-free; conditions: read-out: Stability
[17] = Stability in simulated physiological fluid assessed as compound remaining at pH 7.4 measured upto 120 mins by LC-MS analysis; format: physicochemical; conditions: read-out: Stability
[18] = tested on: Mus musculus; assay: Antiinflammatory activity in Swiss albino mouse assessed as inhibition of carrageenan-induced paw edema at 25 mg/kg,po pretreated for 1 hr followed by carrageenan administration measured after 4 hrs relative to control; format: functional; conditions: time 5 hrs
[19] = tested on: THP-1; assay: Downregulation of LPS-induced ERK1/2 phosphorylation in human THP-1 cells at 10 uM incubated for 60 mins followed by LPS treatment 90 mins by […]; format: functional, cell-based; conditions: time 150.0 min
[20] = Half life in fasted Swiss mouse at 50 mg/kg, po measured upto 48 hrs by LC-MS/MS analysis; format: ADME, organism-based; conditions: in vivo
[21] = Volume of distribution in fasted Swiss mouse at 50 mg/kg, po measured upto 48 hrs by LC-MS/MS analysis; format: ADME, organism-based; conditions: in vivo
[22] = tested on: Mus musculus; assay: Antiinflammatory activity in Swiss albino mouse assessed as inhibition of carrageenan-induced paw edema at 50 mg/kg,po pretreated for 1 hr followed by carrageenan administration measured after 4 hrs relative to control; format: functional; conditions: time 5 hrs
[23] = tested on: Mus musculus; assay: Antiinflammatory activity in Swiss albino mouse assessed as inhibition of carrageenan-induced paw edema at 50 mg/kg,po pretreated for 1 hr followed by carrageenan administration measured after 6 hrs relative to control; format: functional; conditions: time 7 hrs
[24] = Cmax in fasted Swiss mouse at 50 mg/kg, po measured upto 48 hrs by LC-MS/MS analysis; format: ADME, organism-based; set-up: time < 48 hrs, dose 50 mg/kg, route po; conditions: in vivo
[25] = tested on: Mus musculus; assay: Antiinflammatory activity in Swiss albino mouse assessed as inhibition of carrageenan-induced paw edema at 100 mg/kg,po pretreated for 1 hr followed by carrageenan administration measured after 4 hrs relative to control; format: functional; conditions: time 5 hrs
[26] = Stability in simulated intestinal fluid assessed as compound remaining at pH 6.8 measured upto 120 mins by LC-MS analysis; format: ADME; conditions: read-out: Stability
[27] = Stability in simulated gastric fluid assessed as compound remaining at pH 1.2 measured upto 120 mins by LC-MS analysis; format: ADME; conditions: read-out: Stability
[28] = MRT in fasted Swiss mouse at 50 mg/kg, po measured upto 48 hrs by LC-MS/MS analysis; format: ADME, organism-based; conditions: in vivo
[29] = tested on: Mus musculus; assay: Antiinflammatory activity in Swiss albino mouse assessed as inhibition of carrageenan-induced paw edema at 25 mg/kg,po pretreated for 1 hr followed by carrageenan administration measured after 6 hrs relative to control; format: functional; conditions: time 7 hrs
[30] = tested on: THP-1; assay: Downregulation of LPS-induced JNK1/2 phosphorylation in human THP-1 cells at 10 uM incubated for 60 mins followed by LPS treatment 90 mins by […]; format: functional, cell-based; conditions: time 150.0 min
[31] = tested on: HEK-293T; assay: Antiinflammatory activity against HEK293T cells assessed as fold increase in TNFalpha-induced NF-kappaB activity at 1 uM incubated for 1 hr followed by TNFalpha treatment for 5 hrs by luciferase based assay (reference value: 17.1); format: functional, Homo sapiens; conditions: time 6 hrs

`Cc1c(C(=O)Nc2ccccc2)c(-c2ccccc2)c(-c2ccc(F)cc2)n1CCC1=CC(=O)OC1O` (configuration not stated) gave a CC50 at 72 h [1] of over 200000 nM, an MST [2] of 8 days and an Activity [3] of 56.4%. For the same compound, the Activity [4] was 46.6%, the Activity [5] was “Active” and the “fold change (FC)” value [6] was 11.4. The Activity [7] was 89.15%, the IC50 [8] was 4310 nM and the IC50 [9] was 880 nM.
With `Cc1c(C(=O)Nc2ccccc2)c(-c2ccccc2)c(-c2ccccc2)n1CC1=CC(=O)OC1O` (configuration not stated) the Activity [5] was “Active”, the “fold change (FC)” value [6] was 10.6 and the Activity [7] was 78.73%. For the same compound, the IC50 [9] was 1420 nM.
For `COc1ccc(-c2c(C(=O)Nc3ccccc3)c(C)n(CCC3=CC(=O)OC3O)c2-c2ccc(OC)cc2)cc1` (configuration not stated), the Activity [5] was “Active”, the “fold change (FC)” value [6] was 8.6 and the Activity [7] was 85.2%. The IC50 [9] was 1490 nM.
With `CCc1ccc(-c2c(-c3ccccc3)c(C(=O)Nc3ccccc3)c(C)n2CCC2=CC(=O)OC2O)cc1` (configuration not stated) the Activity [5] was “Active”, the “fold change (FC)” value [6] was 7.8 and the Activity [7] was 89.93%. It also gave an IC50 [9] of 1550 nM.
With `Cc1c(C(=O)Nc2ccccc2)c(-c2ccccc2)c(-c2ccc(Cl)cc2)n1CCC1=CC(=O)OC1O` (configuration not stated) the Activity [5] was “Active”, the “fold change (FC)” value [6] was 10.4 and the Activity [7] was 35.92%. The IC50 [9] was 2190 nM.
Work on `CC(C)Cc1ccc(C(C)C(=O)O)cc1` (configuration not stated) [IBUPROFEN] yielded an inhibition in vivo at 200 mg/kg [10] of 72% and an inhibition in vivo at 200 mg/kg [11] of 78%.
With `COc1ccc(-c2c(C(=O)Nc3ccccc3)c(C)n(CC3=CC(=O)OC3O)c2-c2ccc(OC)cc2)cc1` (configuration not stated) the Activity [5] was “Active”, the “fold change (FC)” value [6] was 9.8 and the Activity [7] was 19.82%. For the same compound, the IC50 [9] was 1800 nM.
`Cc1ccc(-c2c(C(=O)Nc3ccccc3)c(C)n(CCC3=CC(=O)OC3O)c2-c2ccc(C)cc2)cc1` (configuration not stated) showed an IC50 [9] of over 5000 nM.
With `Cc1c(C(=O)Nc2ccccc2)c(-c2ccc(Cl)cc2)c(-c2ccc(Cl)cc2)n1CC1=CC(=O)OC1O` (configuration not stated) the Activity [5] was “Active”, the “fold change (FC)” value [6] was 8.5 and the Activity [7] was 91.04%. The IC50 [9] was 1870 nM.
In the case of `Cc1c(C(=O)Nc2ccccc2)c(-c2ccc(F)cc2)c(-c2ccc(F)cc2)n1CC1=CC(=O)OC1O` (configuration not stated), the Activity [5] is reported as “Active”, the “fold change (FC)” value [6] is reported as 9 and the Activity [7] is reported as 32.69%. For the same compound, the IC50 [9] was 4620 nM.
`Cc1c(C(=O)Nc2ccccc2)c(-c2ccccc2)c(-c2ccc(C(C)C)cc2)n1CCC1=CC(=O)OC1O` (configuration not stated) showed a Tmax [12] of 15 min, an inhibition in vivo at 100 mg/kg [13] of 62% and a CL/F [14] of 292 L/h/kg. For the same compound, the AUC at 48 h [15] was 178 ng·h/mL, the remaining at 2 h, 10 µM [16] was 81.8% and the remaining at 2 h [17] was 89.8%. It also gave an inhibition in vivo at 25 mg/kg [18] of 49%, a CC50 at 72 h [1] of 138000 nM and an MST [2] of 12.2 days. For the same compound, the Activity [3] was 69.4%, the Activity [19] was “Active” and the half-life [20] was 75 min. For the same compound, the Activity [4] was 46.4%, the Vd [21] was 541.85 L/kg and the Activity [5] was “Active”. The “fold change (FC)” value [6] was 7.4, the Activity [7] was 92.51% and the inhibition in vivo at 50 mg/kg [22] was 60%. The inhibition in vivo at 50 mg/kg [23] was 58%, the Cmax [24] was 369 ng/mL and the inhibition in vivo at 100 mg/kg [25] was 67%. The remaining at 2 h [26] was 89.9%, the IC50 [8] was 4210 nM and the remaining at 2 h [27] was 89.7%. The MRT [28] was 58.8 min, the inhibition in vivo at 25 mg/kg [29] was 43% and the IC50 [9] was 970 nM. For the same compound, the Activity [30] was “Active”.
For `COc1ccc(-c2c(-c3ccccc3)c(C(=O)Nc3ccccc3)c(C)n2CC2=CC(=O)OC2O)cc1` (configuration not stated), the Activity [5] was “Active”, the “fold change (FC)” value [6] was 10.4 and the Activity [7] was 79.88%. The IC50 [9] was 3390 nM.
In the case of `S=C(S)N1CCCC1` [PYRROLIDINE DITHIOCARBAMATE], the “fold change (FC)” value [31] is reported as 2.3.
In the case of `Cc1c(C(=O)Nc2ccccc2)c(-c2ccccc2)c(-c2ccc(Cl)cc2)n1CC1=CC(=O)OC1O` (configuration not stated), the Activity [5] is reported as “Active”, the “fold change (FC)” value [6] is reported as 12.1 and the Activity [7] is reported as 88.38%. It also gave an IC50 [9] of 1360 nM.
